For test [1], the system named is Mus musculus. The test can be described thus: Lowest active dose for the inhibition of locomotor screen falloff test, ip. The class given is functional.
Test [2] is filed under the species Rattus norvegicus. As to the kind of experiment: Effective dose determined by suppression of high base-line self-stimulation in adult male hooded rats. It is filed as functional.
The species named for test [3] is Rattus norvegicus. As to the kind of experiment: Effective dose determined by catalepsy test in rat. It is filed as functional.
Test [4] concerns the target Dopamine receptor (Rattus norvegicus) (UniProt P25115+P19020+P30729+P18901+P61169). As to the kind of experiment: Inhibition of [3H]haloperidol binding to dopamine receptors in rat striatal membranes at 10e-8 M. The class given is cell membranes. As to conditions: Membrane.
For test [5], the species on record is Rattus norvegicus. The test can be described thus: Effective dose against [3H]haloperidol binding in rat striatal membranes. The class given is functional. The following applies: Striatum, Membrane.
For test [6], the target named is Dopamine receptor. The test can be described thus: Inhibition of [3H]haloperidol binding to dopamine receptors in rat striatal membranes.

Values joined by “and” are separate entries in the source; they are usually repeats but may differ in a detail not shown here. Identical values can stand only once.

Broadly, the inhibition is the relative decrease from the control value, in per cent. A higher inhibition goes with strong suppression. In general, IC50 refers to the midpoint of a concentration-inhibition curve. A low value points to inhibition by little substance.

In test [1], `Oc1nc2cc(Cl)c(Cl)cc2n1C1CCN(CCCN(c2ccc(F)cc2)c2ccc(F)cc2)CC1` had an LAD of over 100 mg/kg.

In the case of `Fc1ccc(N(CCCN2CCC(n3c(S)nc4ccccc43)CC2)c2ccc(F)cc2)cc1`, the LAD in test [1] is over 100 mg/kg.

Compound `OC1(c2ccc(Cl)cc2)CCN(CCCN(c2ccc(F)cc2)c2ccc(F)cc2)CC1` returned an LAD in test [1] of 30 mg/kg. Further, the ED50 in test [2] was determined as 4.42 mg/kg.

`CN1CCN(C2=Nc3cc(Cl)ccc3Nc3ccccc32)CC1` [CLOZAPINE]: in test [1], the LAD amounted to 10 mg/kg. Besides, the ED50 came out at 133 mg/kg in test [3] and 14.3 mg/kg in test [2].

In the case of `Oc1nc2ccccc2n1C1CCN(CCCN(c2ccc(F)cc2)c2ccccc2F)CC1`, the inhibition in test [4] was determined as 92%. Further, in test [1], the LAD worked out at 30 mg/kg. Moreover, the ED50 was 156 mg/kg in test [3] and 11.3 mg/kg in test [2].

The compound `Oc1nc2cc(Cl)ccc2n1C1CCN(CCCN(c2ccc(F)cc2)c2ccc(F)cc2)CC1` displayed an LAD in test [1] of over 100 mg/kg.

Regarding `O=C1NCN(c2ccccc2)C12CCN(CCCN(c1ccccc1)c1ccc(F)cc1)CC2`, in test [1], the LAD came out at 30 mg/kg. In addition, the ED50 was 156 mg/kg in test [3] and 11.7 mg/kg in test [2].

As for `O=C1NCN(c2ccccc2)C12CCN(CCN(c1ccc(F)cc1)c1ccc(F)cc1)CC2`, the LAD in test [1] turned out to be 100 mg/kg.

As to `Oc1nc2ccccc2n1C1=CCN(CCCN(c2ccc(F)cc2)c2ccc(F)cc2)CC1`, in test [1], the LAD came to 30 mg/kg. The ED50 in test [3] came to 105 mg/kg; in test [2], 5.55 mg/kg; in test [5], 0.32 nM.

On to `O=C(c1ccc(Cl)cc1)C1CCN(CCCN(c2ccc(F)cc2)c2ccc(F)cc2)CC1`, for which the LAD in test [1] is over 100 mg/kg.

In test [4], `Oc1nc2ccccc2n1C1CCN(CCCN(c2ccccc2)c2ccc(F)cc2)CC1` registered an inhibition of 84%. For the same compound, the LAD in test [1] amounted to 30 mg/kg. Also, the ED50 is 76 mg/kg in test [3] and 8.37 mg/kg in test [2].

Take `O=C1NCN(c2ccccc2)C12CCN(CCCCN(c1ccc(F)cc1)c1ccc(F)cc1)CC2`: in test [1], the LAD is over 100 mg/kg.

In test [4], `O=[N+]([O-])c1ccc(N(CCCN2CCC(n3c(O)nc4ccccc43)CC2)c2ccccc2)cc1` showed an inhibition of 17%. In test [1], this compound returned an LAD of 100 mg/kg.

Regarding `O=c1[nH]c2ccccc2n1C1CCN(CCCC(c2ccc(F)cc2)c2ccc(F)cc2)CC1` [PIMOZIDE], the LAD in test [1] was <10 mg/kg and 30 mg/kg.

Take `OCCN1CCN(CCCN(c2ccc(F)cc2)c2ccc(F)cc2)CC1`: in test [1], the LAD was over 100 mg/kg.

The compound `O=C1NCN(c2ccccc2)C12CCN(CCCC(c1ccc(F)cc1)c1ccc(F)cc1)CC2` registered an LAD in test [1] of under 10 mg/kg. Further, the ED50 in test [3] was determined as 10.8 mg/kg; in test [2], 1.28 mg/kg.

With `Oc1nc2ccccc2n1C1CCN(CCCN(c2ccccc2)c2cccc(Cl)c2)CC1`, the LAD in test [1] was over 100 mg/kg.

With `Oc1nc2ccccc2n1C1CCN(CCCN(c2ccccc2)c2ccccc2)CC1`, in test [1], the LAD came to 30 mg/kg. For the same compound, the ED50 in test [2] came to 13.2 mg/kg.

In test [1], `Fc1ccc(N(CCCN2CCN(c3ccccc3)CC2)c2ccc(F)cc2)cc1` showed an LAD of 100 mg/kg.

`O=C1NCN(c2ccccc2)C12CCN(CCCN(c1ccc(F)cc1)c1cccc(Cl)c1)CC2` had an LAD in test [1] of 30 mg/kg. The ED50 in test [3] was determined as 289 mg/kg; in test [2], 12.7 mg/kg.

The compound `O=C1NCN(c2ccccc2)C12CCN(CCCN(c1ccc(F)cc1)c1ccc(F)cc1)CC2` yielded an IC50 in test [6] of 0.61 nM. Besides, in test [1], the LAD is 5 mg/kg. Also, the values for the ED50 in test [3] and in test [2] were 81.2 mg/kg and 1.65 mg/kg, respectively.

Turning to `Cc1cc2nc(O)n(C3CCN(CCCN(c4ccc(F)cc4)c4ccc(F)cc4)CC3)c2cc1C`, the LAD in test [1] worked out at 30 mg/kg. In test [2], this compound registered an ED50 of over 16 mg/kg.

Consider `COc1ccccc1N1CCN(CCCN(c2ccc(F)cc2)c2ccc(F)cc2)CC1`, for which the 50% inhibitory concentration (IC50) in test [6] was 13 nM. This compound registered an LAD in test [1] of 30 mg/kg. Further, the ED50 stood at 160 mg/kg in test [3] and 5.5 mg/kg in test [2].

The record behind these values is ChEMBL document CHEMBL1122995, “1-[3-(Diarylamino)propyl]piperidines and related compounds, potential antipsychotic agents with low cataleptogenic profiles” (J Med Chem, 1985).
